Patent US20100004459A1, “2-PHENYLNICOTINIC ACID DERIVATIVE” (NIPPON ZOKI PHARMACEUTICAL CO., LTD., priority 2006, published 2010)

Experiments:
xanthine oxidase = biological target: T1, xanthine oxidase (Bos taurus, UniProt P80457); assay: Test for xanthine oxidase inhibitory activity; type: biochemical; conditions: xanthine oxidase derived from milk (Sigma); substrate xanthine; uric acid production at OD 292 nm, 37° C.
T1 construct: derived from milk; manufactured by Sigma; purchased Sigma; host or cells: milk (natural source)
T1 sequence (P80457 whole entry): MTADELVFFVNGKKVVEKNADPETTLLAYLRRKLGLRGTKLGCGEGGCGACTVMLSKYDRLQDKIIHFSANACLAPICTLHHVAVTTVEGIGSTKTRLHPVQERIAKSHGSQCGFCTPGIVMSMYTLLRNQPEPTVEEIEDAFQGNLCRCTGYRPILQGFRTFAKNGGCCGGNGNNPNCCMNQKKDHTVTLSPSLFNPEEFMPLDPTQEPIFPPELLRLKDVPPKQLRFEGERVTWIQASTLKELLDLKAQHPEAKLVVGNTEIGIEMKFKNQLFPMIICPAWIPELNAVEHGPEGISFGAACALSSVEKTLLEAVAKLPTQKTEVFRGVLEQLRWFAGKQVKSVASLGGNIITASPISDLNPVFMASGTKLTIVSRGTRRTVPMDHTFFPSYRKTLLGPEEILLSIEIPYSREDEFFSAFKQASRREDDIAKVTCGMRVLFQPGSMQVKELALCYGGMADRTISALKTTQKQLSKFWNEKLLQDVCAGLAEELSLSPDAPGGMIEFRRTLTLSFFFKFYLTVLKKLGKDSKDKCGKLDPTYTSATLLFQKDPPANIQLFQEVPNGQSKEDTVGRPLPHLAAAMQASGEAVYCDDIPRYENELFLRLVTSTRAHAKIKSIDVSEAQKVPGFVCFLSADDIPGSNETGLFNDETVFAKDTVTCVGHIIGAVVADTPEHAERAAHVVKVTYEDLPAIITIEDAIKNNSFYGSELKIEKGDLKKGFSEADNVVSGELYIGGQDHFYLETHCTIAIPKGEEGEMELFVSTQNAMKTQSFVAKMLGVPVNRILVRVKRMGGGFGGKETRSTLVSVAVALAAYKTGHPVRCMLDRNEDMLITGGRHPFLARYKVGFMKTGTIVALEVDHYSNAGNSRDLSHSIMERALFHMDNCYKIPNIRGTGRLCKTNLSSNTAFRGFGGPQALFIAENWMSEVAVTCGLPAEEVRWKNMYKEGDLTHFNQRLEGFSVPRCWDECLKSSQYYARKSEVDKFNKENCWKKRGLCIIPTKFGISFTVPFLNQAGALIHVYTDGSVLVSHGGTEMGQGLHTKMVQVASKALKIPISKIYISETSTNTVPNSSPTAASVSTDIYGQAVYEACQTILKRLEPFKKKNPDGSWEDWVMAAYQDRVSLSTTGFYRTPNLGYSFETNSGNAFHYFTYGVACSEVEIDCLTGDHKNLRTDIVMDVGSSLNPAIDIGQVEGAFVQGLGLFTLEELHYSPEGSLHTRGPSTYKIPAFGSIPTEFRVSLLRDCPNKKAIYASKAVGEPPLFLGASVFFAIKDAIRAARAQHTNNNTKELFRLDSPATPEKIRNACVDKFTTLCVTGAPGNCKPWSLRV
Procedure: Evaluation of inhibitory activity of the present invention to xanthine oxidase was conducted using xanthine as a substrate by measuring the amount of uric acid produced by xanthine oxidase which is an oxidizing enzyme therefor. Thus, xanthine oxidase (0.01 unit/L, 20 μL/well; derived from milk; manufactured by Sigma), diethylenetriamine pentaacetate (0.01 mol/L, 20 μL/well), phosphate buffer (20 μL/well), distilled water (100 μL/well) and a diluted solution (20 μL/well) of a test substance were mixed in a 96-well quartz microplate. After preincubating for 5 minutes in a microplate spectrophotometer warmed at 37° C., xanthine (1 mmol/L, 20 μL/well) was added. The changes with elapse of time in OD 292 nm based on the production of uric acid was measured using a microplate spectrophotometer warmed at 37° C. whereby the initial reaction velocity was measured. Xanthine oxidase inhibitory activity was calculated by the following formula and concentration of the test substance for 50% suppression (IC50 value) was calculated.
Inhibition Rate(%)={[(Initial Reaction Velocity of the Reaction Control)-(Initial Reaction Velocity upon Addition of Test Substance)]/[Initial Reaction Velocity of the Reaction Control]}×100

[1] = system: model rats of fructose-loaded hypertriglyceridemia; assay: Model rats of fructose-loaded hypertriglyceridemia: action for lowering of triglyceride in serum; type: in vivo; conditions: Rattus norvegicus, po; male SD rats, 75% fructose solution for three days; 100 mg/kg orally once daily; serum 2 hours after final administration; read-out: Inhibition Rate (%) Action for lowering of triglyceride
Procedure: (§1) The test was conducted according to a method of Kusama, et al. (Folia Pharmacologica Japonica, volume 92, pages 175 to 180, 1988). Thus, male rats of SD strain of 6 to 7 weeks age were made in free access to a 75% (w/v) D(−)-fructose solution for three days. During the period of fructose ingestion, a test substance (100 mg/kg) was suspended in 1% methyl cellulose and orally administered once daily. After 2 hours from the final administration, about 500 μL per rat of blood was collected using a hematocrit capillary from orbital venous plexus under anesthetization with ether and centrifuged (3000 rpm at 4° C. for 20 minutes) whereupon the serum was prepared.
(1) Action for Lowering of Triglyceride in Serum
The triglyceride (TG) in the serum was measured by a Triglyceride E-Test Wako (manufactured by Wako Pure Chemical Industries, Ltd.) and each TG lowering rate was determined by the following formula.
TG Lowering Rate(%)={[(TG Value of Control Animal)−(TG Value of Animal Administered with Test Substance)]/[(TG Value of Control Animal)-(TG Value of Untreated Animal)]}×100

[2] = system: model rats of fructose-loaded hypertriglyceridemia; assay: Model rats of fructose-loaded hypertriglyceridemia: action for lowering of uric acid in serum; type: in vivo; conditions: Rattus norvegicus, po; male SD rats, 75% fructose solution for three days; 100 mg/kg orally once daily; serum 2 hours after final administration; read-out: Inhibition Rate (%) Action for lowering of uric acid
Procedure: as §1
(2) Action for Lowering of Uric Acid in Serum
Uric acid value in the serum was measured by a Uric acid C-Test Wako (manufactured by Wako Pure Chemical Industries, Ltd.) using the above serum and each uric acid lowering rate was determined by the following formula.
Uric Acid Lowering Rate(%)={[(Uric Acid Value of Control Animal)-(Uric Acid Value of Animals Administered with Test Substance)]/[Uric Acid Value of Control Animal]}×100

Row | IC50 (xanthine oxidase) | melting point | Compound | inhibition in vivo at 100 mg/kg [1] | inhibition in vivo at 100 mg/kg [2]
1 | 83 nM | 226 to 227 °C | N#Cc1cc(-c2ncccc2C(=O)O)ccc1OCc1ccc(C(F)(F)F)cc1 [Example 50, 2-[3-Cyano-4-(4-trifluoromethylbenzyloxy)phenyl]nicotinic acid] | – | –
2 | 56 nM | 177 to 178 °C | N#Cc1cc(-c2ncccc2C(=O)O)ccc1OCCCc1ccc(F)cc1 [Example 61, 2-{3-Cyano-4-[3-(4-fluorophenyl)propoxy]phenyl}nicotinic acid] | – | –
3 | 13 nM | – | COc1ccc(CC(C)(C)COc2ccc(-c3ncccc3C(=O)O)cc2C#N)cc1 [Example 104, 2-{3-Cyano-4-[2,2-dimethyl-3-(4-methoxyphenyl)propoxy]phenyl}nicotinic acid] | – | –
4 | 52 nM | – | N#Cc1cc(-c2ncccc2C(=O)O)ccc1OCCCc1ccccc1 [Example 116, 2-[3-Cyano-4-(3-phenylpropoxy)phenyl]nicotinic acid] | – | –
5 | 83 nM | 204 to 205 °C | N#Cc1cc(-c2ncccc2C(=O)O)ccc1OCC1CCC1 [Example 46, 2-(3-Cyano-4-cyclobutylmethoxyphenyl)nicotinic acid] | – | –
6 | 21 nM | 155 to 156 °C | CCCCC(C)(C)COc1ccc(-c2ncccc2C(=O)O)cc1C#N [Example 73, 2-[3-Cyano-4-(2,2-dimethylhexyloxy)phenyl]nicotinic acid] | – | –
7 | 25 nM | – | CC(C)(COc1ccc(-c2ncccc2C(=O)O)cc1C#N)Cc1ccc(C(F)(F)F)cc1 [Example 106, 2-{3-Cyano-4-[2,2-dimethyl-3-(4-trifluoromethylphenyl)propoxy]phenyl}nicotinic acid] | – | –
8 | – | 254 to 255 °C | COc1ccc(-c2ncccc2C(=O)O)cc1C#N [Example 43, 2-(3-Cyano-4-methoxyphenyl)nicotinic acid] | – | –
9 | 34 nM | – | N#Cc1cc(-c2ncccc2C(=O)O)ccc1N1CCCCCC1 [Example 138, 2-(4-Azepan-1-yl-3-cyanophenyl)nicotinic acid] | – | –
10 | 90 nM | 149 to 150 °C | N#Cc1cc(-c2ncccc2C(=O)O)ccc1OCCCOc1ccc(Oc2ccccc2)cc1 [Example 71, 2-{3-Cyano-4-[3-(4-phenoxyphenoxy)propoxy]phenyl}nicotinic acid] | – | –
11 | 15 nM | – | CC(C)(COc1ccc(-c2ncccc2C(=O)O)cc1C#N)Cc1ccccc1C(F)(F)F [Example 132, 2-{3-Cyano-4-[2,2-dimethyl-3-(2-trifluoromethylphenyl)propoxy]phenyl}nicotinic acid] | – | –
12 | 17 nM | 196 to 197 °C | CCC1(COc2ccc(-c3ncccc3C(=O)O)cc2C#N)CCCC1 [Example 76, 2-[3-Cyano-4-(1-ethylcyclopentylmethoxy)phenyl]nicotinic acid] | – | –
13 | 49 nM | 173 to 174 °C | N#Cc1cc(-c2ncccc2C(=O)O)ccc1OCCCc1ccccc1F [Example 60, 2-{3-Cyano-4-[3-(2-fluorophenyl)propoxy]phenyl}nicotinic acid] | – | –
14 | 28 nM | – | COc1ccccc1CC(C)(C)COc1ccc(-c2ncccc2C(=O)O)cc1C#N [Example 112, 2-{3-Cyano-4-[2,2-dimethyl-3-(2-methoxyphenyl)propoxy]phenyl}nicotinic acid] | – | –
15 | 58 nM | 159 to 160 °C | N#Cc1cc(-c2ncccc2C(=O)O)ccc1OCCCOc1ccc(OC(F)(F)F)cc1Cl [Example 69, 2-{4-[3-(2-Chloro-4-trifluoromethoxyphenoxy)propoxy]-3-cyanophenyl}nicotinic acid] | – | –
16 | 65 nM | – | N#Cc1cc(-c2ncccc2C(=O)O)ccc1OCCc1ccccc1Cl [Example 100, 2-{4-[2-(2-Chlorophenyl)ethoxy]-3-cyanophenyl}nicotinic acid] | 40.8% | 58.2%
17 | 35 nM | – | COc1ccc(CCCOc2ccc(-c3ncccc3C(=O)O)cc2C#N)cc1 [Example 120, 2-{3-Cyano-4-[3-(4-methoxyphenyl)propoxy]phenyl}nicotinic acid] | – | –
18 | 38 nM | 196 to 197 °C | CC(C)(COc1ccc(-c2ncccc2C(=O)O)cc1C#N)Cc1ccccc1 [Example 80, 2-[3-Cyano-4-(2,2-dimethyl-3-phenylpropoxy)phenyl]nicotinic acid] | – | –
19 | 12 nM | – | N#Cc1cc(-c2ncccc2C(=O)O)ccc1OCCCc1ccccc1C(F)(F)F [Example 118, 2-{3-Cyano-4-[3-(2-trifluoromethylphenyl)propoxy]phenyl}nicotinic acid] | – | –
20 | 63 nM | 187 to 188 °C | CCCCCCOc1ccc(-c2ncccc2C(=O)O)cc1C#N [Example 49, 2-(3-Cyano-4-hexyloxyphenyl)nicotinic acid] | – | –
21 | 40 nM | – | CC(C)(C)COc1ccc(-c2ncc(F)cc2C(=O)O)cc1C#N [Example 140, 2-[3-Cyano-4-(2,2-dimethylpropoxy)phenyl]-5-fluoronicotinic acid] | – | –
22 | 47 nM | – | CC(C)(C)c1cc(CCCOc2ccc(-c3ncccc3C(=O)O)cc2C#N)cc(C(C)(C)C)c1O [Example 88] | – | –
23 | 58 nM | 183 to 184 °C | COc1ccc(CCOc2ccc(-c3ncccc3C(=O)O)cc2C#N)cc1 [Example 53, 2-[3-Cyano-4-(4-methoxyphenethyloxy)phenyl]nicotinic acid] | – | –
24 | 72 nM | – | Cc1ccc(C)c(CCOc2ccc(-c3ncccc3C(=O)O)cc2C#N)c1 [Example 130, 2-[3-Cyano-4-(2,5-dimethylphenethyloxy)phenyl]nicotinic acid] | – | –
25 | 38 nM | 171 to 172 °C | N#Cc1cc(-c2ncccc2C(=O)O)ccc1OCCC1CCCCC1 [Example 48, 2-[3-Cyano-4-(2-cyclohexylethoxy)phenyl]nicotinic acid] | – | –
26 | 91 nM | – | COc1ccc(C(C)(C)COc2ccc(-c3ncccc3C(=O)O)cc2C#N)cc1 [Example 122, 2-{3-Cyano-4-[2-methyl-2-(4-methoxyphenyl)propoxy]phenyl}nicotinic acid] | – | –
27 | 99 nM | – | CS(=O)(=O)Oc1ccc(CCOc2ccc(-c3ncccc3C(=O)O)cc2C#N)cc1 [Example 86, 2-{3-Cyano-4-[2-(4-methanesulfonyloxyphenyl)ethoxy]phenyl}nicotinic acid] | – | –
28 | – | 203 to 204 °C | N#Cc1cc(-c2ncccc2C(=O)O)ccc1OCC1CC1 [Example 45, 2-(3-Cyano-4-cyclopropylmethoxyphenyl)nicotinic acid] | – | –

Row | Compound | IC50 (xanthine oxidase) | melting point | inhibition in vivo at 100 mg/kg [1] | inhibition in vivo at 100 mg/kg [2]
29 | CC(C)(CCc1ccccc1)COc1ccc(-c2ncccc2C(=O)O)cc1C#N [Example 81, 2-[3-Cyano-4-(2,2-dimethyl-4-phenylbutoxy)phenyl]nicotinic acid] | 16 nM | 172 to 173 °C | – | –
30 | COc1ccc(CCCCOc2ccc(-c3ncccc3C(=O)O)cc2C#N)cc1 [Example 134, 2-{3-Cyano-4-[4-(4-methoxyphenyl)butoxy]phenyl}nicotinic acid] | 18 nM | – | – | –
31 | N#Cc1cc(-c2ncccc2C(=O)O)ccc1OCCCCc1ccccc1F [Example 64, 2-{3-Cyano-4-[4-(2-fluorophenyl)butoxy]phenyl}nicotinic acid] | 33 nM | 151 to 152 °C | – | –
32 | CC(C)(C)c1cc(CCCCOc2ccc(-c3ncccc3C(=O)O)cc2C#N)cc(C(C)(C)C)c1O [Example 90, 2-{3-Cyano-4-[4-(3,5-di-tert-butyl-4-hydroxyphenyl)butoxy]phenyl}nicotinic acid] | 37 nM | – | – | –
33 | N#Cc1cc(-c2ncccc2C(=O)O)ccc1OCCCCc1ccccc1C(F)(F)F [Example 126, 2-{3-Cyano-4-[4-(2-trifluoromethylphenyl)butoxy]phenyl}nicotinic acid] | 26 nM | – | – | –
34 | CC(C)COc1ccc(-c2ncccc2C(=O)O)cc1C#N [Example 44, 2-(3-Cyano-4-isobutoxyphenyl)nicotinic acid] | 91 nM | 178 to 179 °C | – | –
35 | N#Cc1cc(-c2ncccc2C(=O)O)ccc1OCCCCc1ccc(C(F)(F)F)cc1 [Example 63, 2-{3-Cyano-4-[4-(4-trifluoromethylphenyl)butoxy]phenyl}nicotinic acid] | 97 nM | 165 to 166 °C | – | –
